Where two headings read alike, the source gives them in different places.
Tested on: Fusarium graminearum
Type: cell-based
Details: enzyme disk 119 nM where (+) enzyme, 5 days

Substance: mancozeb
- Reduction in F. graminearum growth relative to non-treated controls (Mancozeb 0.5 mg/l): 6% cd
- Reduction in F. graminearum growth relative to non-treated controls (Mancozeb 2 mg/l): 1% d
- Reduction in F. graminearum growth relative to non-treated controls (Mancozeb 5 mg/l): 17% cd
- Reduction in F. graminearum growth relative to non-treated controls (Mancozeb 10 mg/l): 26% bcd
